Experimental findings from ChEMBL document CHEMBL3507680, “University of Dundee, Gates Library screen for HepG2 cell viability” are described below.

The nature of the data set: Human HepG2 cell viability assay in 384 well format. The conditions noted are these: HepG2 cells, read-out: Inhibition. On the set-up: dose 125 nL, time 70.5 hour; concentration not given beside the values. In kind it is toxicity, cell-based.
With `Cc1nc(-c2cc(Cl)cc3c2OC(CN)C3)c[nH]1` (stereo not given), the cytotoxicity at 70.5 h stood at 11.1%.
In the case of `CN1CCC(N(Cc2ccccc2)C(=O)c2ccn3cncc3c2)CC1`, the cytotoxicity at 70.5 h is 3.64%.
With `CC(C)c1nc(N2CCC(N3CCCC(O)C3)CC2)c2cnn(C)c2n1` (stereo not given), the cytotoxicity at 70.5 h amounted to 1.93%.
Consider `OC(CN1CCC(c2ccn[nH]2)CC1)c1ccc(F)cc1` (stereo not given), for which the cytotoxicity at 70.5 h amounted to 26.4%.
`O=C(c1ccoc1)N1CC[C@H]2[C@H]1CCN2S(=O)(=O)C1CC1`: the cytotoxicity at 70.5 h was 13.5%.
In the case of `CS(=O)(=O)c1ccc(CN2CCCCC2c2ccc(F)cc2)cc1` (stereo not given), the cytotoxicity at 70.5 h came out at 17.4%.
To `O=C(NCc1nn(-c2ccccc2)c2c1CCC2)NC1CCC(O)CC1` (stereo not given) belongs -8.01%; to `CCn1ccnc1CN1CCOC(Cn2cccn2)C1` (stereo not given), 22.6%.
For the compound `Cc1ccc(S(=O)(=O)NC(=O)C2(c3ccc(F)cc3)CCC2)c(C)c1`, the cytotoxicity at 70.5 h came out at 26.9%.
Take `O=C(NCc1cc[nH]n1)N1CCC(Oc2ccccc2Cl)CC1`: the cytotoxicity at 70.5 h came out at 8.97%.
With `c1ccc(C(c2ccccc2)N2CCN(CCn3cncn3)CC2)cc1`, the cytotoxicity at 70.5 h is -10.4%.
Consider `CC(C)C(NC(=O)c1ccc(Cl)cc1Cl)C(=O)Nc1ccn(C)n1` (stereo not given), for which the cytotoxicity at 70.5 h turned out to be 1.6%.
Turning to `O=C(c1n[nH]c2c1CCC2)N1CCCC1c1nc(-c2ccccn2)no1` (stereo not given), the cytotoxicity at 70.5 h is -3.03%.
To `Cc1nc(-c2ccc(Cl)s2)sc1C(=O)O` belongs 1.47%; to `COCCN1CCN(Cc2ccc(OCc3nccn3C)cc2)CC1`, -14.3%; to `Cc1cc(NC(=O)NCC(C)N2CCOCC2)n(C)n1` (stereo not given), -6.14%.
As to `Cc1occc1C(=O)N1CCOCC2(CCN(Cc3nccs3)C2)C1` (stereo not given), the cytotoxicity at 70.5 h is -6.13%.
On to `CS(=O)(=O)NC[C@]12COC[C@H]1CN(C(=O)Cc1ccccc1F)C2`, for which the cytotoxicity at 70.5 h is -1.03%.
As to `COc1ccc(CN(Cc2cnn(C)c2)CC(C)C)cn1`, the cytotoxicity at 70.5 h is -6.19%.
`Cc1cnn(C2CCCN(C(=O)c3sccc3-n3cnnn3)C2)c1` (stereo not given): the cytotoxicity at 70.5 h is -2.63%.
Next, `CCC1CN(C(=O)c2cncc(C)c2)CCC(=O)N1Cc1ccccc1` (stereo not given): -3.22%; `Cc1nc(CC(=O)N2CCN(c3ccc(N(C)C)cc3)CC2)cs1`: 4.33%.
Regarding `CCNc1nc(C)c(C(=O)N(C)Cc2nc(CC)no2)s1`, the cytotoxicity at 70.5 h was -34.8%.
To `CC(C)=CCC1(CO)CCCN(Cc2cnc(N3CCOCC3)nc2)C1` (stereo not given) belongs -6.39%; to `CCc1noc(C(C)N2CCN(CCc3ccncc3)CC2)n1` (stereo not given), -5.36%.
With `O=C(c1ccco1)N1CCCC(c2cc(C(F)F)n3ncnc3n2)C1` (stereo not given), the cytotoxicity at 70.5 h was -14.3%.
Regarding `COc1cccc([C@@]2(O)CC[C@@H]3CN(C(=O)c4ccn(C)n4)C[C@@H]32)c1`, the cytotoxicity at 70.5 h is -6.49%.
On to `CCCS(=O)(=O)NCc1cccnc1OCC`, for which the cytotoxicity at 70.5 h was -6.74%.
Turning to `COC(=O)C1CCN(C(=O)Cn2nc(C)nc2-c2ccccc2)CC1`, the cytotoxicity at 70.5 h was -2.98%.
Turning to `c1ccc(O[C@H]2CO[C@@]3(CCN(Cc4ccc5c(c4)OCO5)C3)C2)nc1`, the cytotoxicity at 70.5 h came out at 0.478%.
`Cc1ccc(C(C)(C)CNC(=O)NC(C)Cn2cncn2)cc1` (stereo not given): the cytotoxicity at 70.5 h is -0.962%.
In the case of `CC(C)C(=O)N1CCCC(Cc2ccccn2)C1` (stereo not given), the cytotoxicity at 70.5 h was -1.35%.
`NC(=O)Nc1ccc(C(=O)NCCn2cccc2)cc1`: the cytotoxicity at 70.5 h is -11.7%.
As to `CN(Cc1cccs1)C(=O)CN(C)C1CCc2ccccc21` (stereo not given), the cytotoxicity at 70.5 h was -7.67%.
Next, `CCc1nnc(CS(=O)(=O)c2ccc(C)c(C)c2)n1C`: 26.2%; `COc1c(C2CCCN2c2ncnc3ccsc23)c(C)nn1C` (stereo not given): -3.57%.
Turning to `CO[C@@H]1CCN(Cc2ccoc2)[C@@H]2CN(Cc3ccco3)C[C@@H]21`, the cytotoxicity at 70.5 h is -5.98%.
Next, `CCN1CCN(c2nsc(-c3cccnc3)c2C#N)CC1`: -5.08%; `COCCS(=O)(=O)NC(C)c1ccccc1Cl` (stereo not given): -2.47%; `CC(=O)Nc1nc(C(=O)NC(C)c2cccnc2)cs1` (stereo not given): -6.5%.
Consider `Cc1nc(Cc2ccc(F)cc2)cc(C2COCCN2)n1` (stereo not given), for which the cytotoxicity at 70.5 h is 2.37%.
To `Cc1cnccc1N1CCN(C(=O)C2CC3(CCNCC3)CN2)CC1` (stereo not given) belongs -5.99%; to `CC(C)CN1C(=O)CO[C@@H]2CN(C(=O)NC(C)C)C[C@H]21`, -2.72%; to `Cc1cc(-c2ccc(C(C)N3CCOCC3)cc2)cnc1N` (stereo not given), -4.56%.
As for `O=C(NC[C@H]1C[C@@H]2CCN1C[C@@H]2CN1CCOCC1)Nc1ccccc1`, the cytotoxicity at 70.5 h is -2.16%.
Next, `O=C(O)[C@@H]1CN(Cc2c[nH]c(CC3CCCC3)n2)C[C@H]1c1ccccn1`: 17.2%; `CC/C=C(\C)CN1CCC(CNC(=O)c2ccc(=O)[nH]c2)CC1`: -6.38%.
As for `Cc1nc(N2CCCC2)nc2c1CCN(C(=O)c1ccoc1C)CC2`, the cytotoxicity at 70.5 h was 1.32%.
In the case of `O=S(=O)(NCCC(O)c1cccs1)c1c(F)cccc1F` (stereo not given), the cytotoxicity at 70.5 h was -14.6%.
Take `O=C(Cn1ccc2sccc2c1=O)NC1CCCCC1`: the cytotoxicity at 70.5 h is -9.58%.
Consider `CCOc1ccc(NC(=O)N(C)Cc2cnn(C)c2)c(C)c1`, for which the cytotoxicity at 70.5 h was -5.21%.
Take `C[C@@H]1C[C@H]2CN(S(=O)(=O)c3ccc(F)cc3)C[C@H]2O1`: the cytotoxicity at 70.5 h is -4.41%.
Consider `COCC(=O)NCC1Cn2nnc(-c3ccoc3)c2CO1` (stereo not given), for which the cytotoxicity at 70.5 h is -6.95%.
Turning to `O=C(NCCNc1cnccn1)N1CCN(Cc2cccnc2)CC1`, the cytotoxicity at 70.5 h is 33.3%.
For the compound `Cc1sc(NC(=O)CCC(=O)O)c(C(N)=O)c1-c1ccc(Cl)cc1Cl`, the cytotoxicity at 70.5 h was -1.16%.
Regarding `COc1ccccc1CC1CCCN(CC(=O)N2CCOCC2)C1` (stereo not given), the cytotoxicity at 70.5 h is -6.05%.
With `CN1CCOC(CNCc2coc(-c3ccc(Cl)cc3)n2)C1` (stereo not given), the cytotoxicity at 70.5 h was -2.49%.
To `COCCNC(=O)c1cccnc1Sc1cc(OC)ccc1OC` belongs 11.2%.
Next, `CC(C)C1=NOC2(CCN(S(C)(=O)=O)CC2)C1`: -12.4%.
`Cc1nnc2n1CCN(C(=O)c1cc(Cl)c[nH]1)C2`: the cytotoxicity at 70.5 h is -6.67%.
On to `CNc1cccc(CC2COCCN(C(=O)c3cnn(C)c3)C2)n1` (stereo not given), for which the cytotoxicity at 70.5 h was -0.46%.
To `CC(C)(C)NC(=O)Cn1c(=O)n(Cc2ccco2)c2ncccc21` belongs -3.69%.
To `CS(=O)(=O)CCn1ccc(NC(=O)Cc2ccccc2Cl)n1` belongs -1.99%.
Regarding `CCc1nc(C2CCCN2Cc2cnc(C)cn2)no1` (stereo not given), the cytotoxicity at 70.5 h was -3.7%.
Next, `CS(=O)(=O)N1Cc2nccn2CC(CNC(=O)c2cccnc2)C1` (stereo not given): -5.69%.
Next, `Cc1ccc(N2CCCN(C(=O)C3CCCO3)CC2)nn1` (stereo not given): 4.49%; `Cc1ccc2c(n1)N(C)CCN(CCN1CCCC1)C2`: 4.19%.
`O=C1NCCN(Cc2ccoc2)C1CC(=O)N1CCc2sccc2C1` (stereo not given): the cytotoxicity at 70.5 h is -0.766%.
For `N#CCCN(CCC#N)C(=O)COC1CCCCC1`, the cytotoxicity at 70.5 h is -6.88%.
To `CCCNC(=O)c1cn(C(C)(C)C)c2ncccc12` belongs -1.86%.
Regarding `Cc1cc(C2CCNCC2)nc(-c2ccsc2)n1`, the cytotoxicity at 70.5 h was -8.24%.
Next, `O=C1CC2(CCN(C(=O)c3ccccn3)C2)Nc2ccccc2N1` (stereo not given): -14.7%; `Cc1nn(C)c(Cl)c1C1CCCN1CC(=O)NC1CCCC1` (stereo not given): 2.37%.
For `Cc1nc(O)cc(CN2CC=C(c3cnn(C(C)(C)C)c3)CC2)n1`, the cytotoxicity at 70.5 h is -10.5%.
Take `Cc1cc(N2CCN(Cc3ccsc3)C(CCO)C2)nc(N)n1` (stereo not given): the cytotoxicity at 70.5 h was -6.22%.
`O=C(Cc1cccnc1)N1CCC2(CCN(CC3CCCCC3)C2)CC1`: the cytotoxicity at 70.5 h is 7.82%.
For `COCC(=O)NCCc1nc2cc(-c3ccc(OC)cc3)ncn2n1`, the cytotoxicity at 70.5 h is -5.33%.
Turning to `Cc1noc(C2CCN(C(=O)CCNc3ncccn3)CC2)n1`, the cytotoxicity at 70.5 h was -1.06%.
Take `CC(C)CN1CC[C@@H]2[C@H](CC1)N(C(=O)c1ccccc1)CCS2(=O)=O`: the cytotoxicity at 70.5 h is -1.5%.
On to `O=C(CCCn1cncn1)N1CCC2(CCCN(CC3CC3)C2=O)C1` (stereo not given), for which the cytotoxicity at 70.5 h is 18.3%.
With `O=C(c1cc2cc(I)ccc2[nH]1)N1CCC(Nc2cccnn2)CC1`, the cytotoxicity at 70.5 h was 1.42%.
With `CCc1nnc(C(C)N2CCCN(C(=O)OCC(C)C)CC2)o1` (stereo not given), the cytotoxicity at 70.5 h amounted to 7.35%.
Consider `O=C(C1CCCCC1)N1CCC(c2n[nH]c3nccnc23)CC1`, for which the cytotoxicity at 70.5 h was -2.95%.
To `CSc1ncc(C(=O)NCc2cc3n(n2)CCCN(CC(C)C)C3)cn1` belongs 5.43%; to `CC(=O)N1CCSCC1c1ccc(C)o1` (stereo not given), -8.59%.
In the case of `COc1cc(F)ccc1-c1cnc(N)cn1`, the cytotoxicity at 70.5 h is -13.6%.
As for `CCc1nn(C)c(Cl)c1CN1CCCC2(CC1)CN(C)C(=O)O2` (stereo not given), the cytotoxicity at 70.5 h is -14.9%.
On to `COc1ccc(C(=O)N2CCCCC2c2ccccn2)c(OC)n1` (stereo not given), for which the cytotoxicity at 70.5 h amounted to 15.4%.
Take `CCc1cnc(C)nc1NC(CC)c1ncnn1CC` (stereo not given): the cytotoxicity at 70.5 h was -5.6%.
Take `Cc1ccc(Cc2cnc(C3CCNCC3)cn2)cc1`: the cytotoxicity at 70.5 h is -12.9%.
In the case of `O=C(c1ccoc1)N1Cc2cnn(CC3CC3)c2C(COCC2CC2)C1` (stereo not given), the cytotoxicity at 70.5 h stood at 16%.
Regarding `CC(C(=O)NC1CC1)n1nc(-c2cccs2)cc(N)c1=O` (stereo not given), the cytotoxicity at 70.5 h is 6.89%.
With `CCN(C(=O)COC)C(c1ccc(Cl)cc1)c1ccccn1` (stereo not given), the cytotoxicity at 70.5 h is -21.9%.
With `CC(=O)c1cc(CN2C[C@@H](NS(=O)(=O)N(C)C)[C@H](C(C)C)C2)cs1`, the cytotoxicity at 70.5 h came out at 7.82%.
To `CC(CN1CCC(c2ccccc2)CC1)n1cnc2ccccc21` (stereo not given) belongs -18.3%.
As to `CCc1nnsc1C(=O)NC1CCN(CCOc2ccc(Br)cc2)CC1`, the cytotoxicity at 70.5 h is -4.31%.
Regarding `Cn1ncc(C(=O)O)c1C(=O)Nc1nc2ccccc2s1`, the cytotoxicity at 70.5 h was 14.7%.
As to `CCc1nc(CN2CCCN(c3nc4ccccc4o3)CC2)no1`, the cytotoxicity at 70.5 h amounted to 6.35%.
Regarding `CC(C)N1CCOC(c2cc(CCO)[nH]n2)C1` (stereo not given), the cytotoxicity at 70.5 h was -1.76%.
Take `CN(Cc1ccco1)C(=O)NCC(c1cccs1)N(C)C` (stereo not given): the cytotoxicity at 70.5 h was -11.2%.
